# Reference: patent US7780997B2, “Pharmaceutically active extracts of vitex leucoxylon, a process of extracting the same and a method of treating diabetes and inflammatory diseases therewith” (Laila Impex, priority 2005, dated 2010)
# How the values were obtained:
# Albino wistar rats [1] = test: Anti-inflammatory activity (Carrageenin induced paw edema method); type: in vivo; settings: Rattus norvegicus, oral dose 25 mg/Kg, 3 h after carrageenin
# Procedure: Anti-inflammatory activity (Carrageenin induced paw edema method): Prior to the experiment all the animals (Albino wistar rats of either sex weighing between 180-300 g) fasted at ad libitum water and were weighed, numbered and randomly divided into groups, each containing 3 animals. Initial paw volumes were measured using plethesmometer and noted. All the groups were treated with corresponding test substance orally using gastric tube. Control group was treated with 10 mL/Kg vehicle (0.5%, carboxymethyl cellulose sodium salt). After 30 minutes, all the animals were injected subcutaneously at subplantar region of left hind paw 1% carrageenin 0.1 mL using hypodermic needle. All the animals were administered water 20 mL/Kg body weight and kept devoid of water for 3 h (maintained uniform hydration). After 3 h, paw volumes of all the animals were measured twice and average volume from two measurements were recorded. The % of inhibition of paw edema was calculated by comparing paw edema of test substance treated groups with that of control groups.
# Albino wistar rats [2] = test: Hypoglycemic activity: inhibition of sucrose-induced raise in serum glucose levels (SGL); type: in vivo, rat; settings: for Increased SGL (mean ± SE): 20 mL/kg of 20% sucrose after 30 min, blood one hour after treatment, rats; for % of inhibition (increase in serum glucose levels vs control): sucrose-loaded rats
# Procedure: Hypoglycemic activity: Hypoglycemic activity was tested by the inhibition of sucrose-induced raise in serum glucose levels (SGL), by the V. leucoxylon extracts in Albino wistar rats. The procedure involves fasting the rats for overnight at ad libitum water, numbered weighed and randomly divided into groups of three animals each. Prior to treatment blood samples were drawn from sinus orbital plexus of all animals using heparin coated glass capillaries under mild ether anesthesia. The blood samples were tested for serum glucose levels using enzymatic GOD/POD method. Optical densities were measured at 500 nm, SGL was calculated as follows. SGL=(test OD/Standard OD)×100 and the results were expressed in mg/dL. All the groups were treated orally with corresponding test substances, standard, vehicle (5% gum acacia). After 30 minutes, all animals were given 20 mL/kg of 20% sucrose solution orally using gastric tube. One hour after treatment, blood samples were drawn again under mild ether anesthesia and tested for serum glucose levels in a similar procedure as described above for initial serum glucose estimation. The data was subjected to statistical treatment using t-test and inhibitory rate was calculated by comparing mean increase in serum glucose levels of control and red groups.
structure (smiles),measurement,setting,value
O=C(O)Cc1ccccc1Nc1c(Cl)cccc1Cl [Diclofenac sodium],inhibition at 25 mg/kg,Albino wistar rats [1],63.1%
C[C@H]1[C@H](C)CC[C@]2(C(=O)O)CC[C@]3(C)C(=CC[C@@H]4[C@@]5(C)C[C@@H](O)[C@H](O)C(C)(C)[C@@H]5CC[C@]43C)[C@H]12 [Corosolic acid],Increased SGL (mean ± SE),Albino wistar rats [2]; oral dose 1 mg/Kg,27.72 ± 3.27 mg/dL
same,% of inhibition (increase in serum glucose levels vs control),Albino wistar rats [2]; oral dose 1 mg/Kg,9.78%
COc1ccc(Cl)cc1C(=O)NCCc1ccc(S(=O)(=O)NC(=O)NC2CCCCC2)cc1 [Glibenclamide],Increased SGL (mean ± SE),Albino wistar rats [2]; oral dose 25 mg/Kg,6.12 ± 4.32 mg/dL
same,% of inhibition (increase in serum glucose levels vs control),Albino wistar rats [2]; oral dose 25 mg/Kg,80.0%
